{"source": "patent US20260108483A1", "about": "“METHODS AND COMPOSITIONS FOR PREVENTING THE PROGRESSION OF DIABETIC RETINOPATHY AND RELATED CONDITIONS” (Opus Genetics, Inc., priority 2023, published 2026)", "experiment": "Dynamic vapor sorption (DVS) analysis", "assay_type": "physicochemical", "note": "Structures can show the parent of a compound that is named as a salt.", "data": [{"smiles": "CCCCCCCCC/C(=C\\C1=C(C)C(=O)C(OC)=C(OC)C1=O)C(=O)O", "note": "[Compound 1 calcium salt]", "values": [{"measurement": "maximum water adsorption (DVS)", "setting": "at 82% RH", "value": "about 1.52%"}, {"measurement": "water retained at the end of the desorption branch (DVS)", "setting": "end of desorption", "value": 0.19, "unit": "%"}, {"measurement": "crystalline form of post-DVS sample (XRPD) versus pre-DVS sample", "setting": "subsequent XRPD analysis after DVS", "value": "maintained the same crystalline form"}]}]}
